Measured values: EP0863891B1, “(METHYLSULFONYL)PHENYL-2-(5H)-FURANONES AS COX-2 INHIBITORS” (Merck Frosst Canada & Co., priority 1995, dated 1997)
Where two headings read alike, the source gives them in different places.

Key:
[1] = test system: Male Sprague-Dawley rats; assay: Rat paw edema assay (carrageenan-induced); assay type: in vivo; conditions: po, 3 hr; for ED50: Rattus norvegicus
Experimental: Male Sprague-Dawley rats (150-200 g) are fasted overnight and are given, po, either vehicle (1% methocel or 5% Tween 80) or a test compound. One hr later, a line is drawn using a permanent marker at the level above the ankle in one hind paw to define the area of the paw to be monitored. The paw volume (V0) is measured using a plethysmometer (Ugo-Basile, Italy) based on the principle of water displacement. The animals are then injected subplantarly with 50 µl of 1% carrageenan solution in saline (PMC Corp, Maine) into the paw using an insulin syringe with a 25-gauge needle (i.e. 500 µg carrageenan per paw). Three hr later, the paw volume (V3) is measured and the increases in paw volume (V3 - VO) are calculated. The animals are sacrificed by CO2 asphyxiation and the absence or presence of stomach lesions scored. Data is compared with the vehicle-control values and percent inhibition calculated. All treatment groups are coded to eliminate observer bias.

[2] = molecular target: T1, CHO [hCOX-2] (Homo sapiens, UniProt P35354); assay: Whole cell assay for COX-2 using CHO transfected cell line (PGE2 synthesis); assay type: cell-based; conditions: read-out: COX-2(IC50, µM) CHO
T1 construct: expressed in transfected cells; host or cells: CHO cells, stably transfected with pCDNAIII
T1 sequence (P35354 18-604): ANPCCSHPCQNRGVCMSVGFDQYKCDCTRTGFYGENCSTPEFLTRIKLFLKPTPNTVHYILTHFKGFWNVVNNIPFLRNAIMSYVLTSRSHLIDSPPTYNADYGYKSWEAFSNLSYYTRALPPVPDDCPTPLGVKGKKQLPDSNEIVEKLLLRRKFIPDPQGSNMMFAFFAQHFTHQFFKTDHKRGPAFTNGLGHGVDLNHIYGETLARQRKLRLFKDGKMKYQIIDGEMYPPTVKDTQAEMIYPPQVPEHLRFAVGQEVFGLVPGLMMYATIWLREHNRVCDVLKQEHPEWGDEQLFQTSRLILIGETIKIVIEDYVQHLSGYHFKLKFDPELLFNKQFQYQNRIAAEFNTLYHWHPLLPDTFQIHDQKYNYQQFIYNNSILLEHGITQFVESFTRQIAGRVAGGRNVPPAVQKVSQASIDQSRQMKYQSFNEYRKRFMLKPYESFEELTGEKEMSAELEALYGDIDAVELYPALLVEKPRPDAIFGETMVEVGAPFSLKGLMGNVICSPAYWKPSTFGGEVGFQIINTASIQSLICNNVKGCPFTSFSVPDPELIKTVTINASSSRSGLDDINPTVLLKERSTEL
Experimental: Chinese hamster ovary (CHO) cell lines which have been stably transfected with an eukaryotic expression vector pCDNAIII containing either the human COX-1 or COX-2 cDNA's are used for the assay. These cell lines are referred to as CHO [hCOX-1] and CHO [hCOX-2], respectively. […] Cells (0.3 x 10^6 cells in 200 µl) are preincubated with 3 µl of the test drug or DMSO vehicle for 15 min at 37°C. […] Cells are then challenged in the presence or absence of drug with the AA/HBSS solution to yield a final concentration of 0.5 µM AA in the CHO[hCOX-1] assay and a final concentration of 10 µM AA in the CHO[hCOX-2] assay. […] The samples are centrifuged at 300 x g at 4°C for 10 min, and an aliquot of the clarified supernatant is appropriately diluted for the determination of PGE2 levels using an enzyme-linked immunoassay for PGE2 (Correlate PGE2 enzyme immunoassay kit, Assay Designs, Inc.). Cyclooxygenase activity in the absence of test compounds is determined as the difference in PGE2 levels of cells challenged with arachidonic acid versus the PGE2 levels in cells mock-challenged with ethanol vehicle. Inhibition of PGE2 synthesis by test compounds is calculated as a percentage of the activity in the presence of drug versus the activity in the positive control samples.
In the assay, inhibition is determined by measuring the amount of prostaglandin E2 (PGE2) synthesized in the presence of arachidonic acid, cyclooxygenase-1 or cyclooxygenase-2 and a putative inhibitor.

[3] = molecular target: T2, COX-2 (Homo sapiens, UniProt P35354); assay: Human whole blood assay, COX-2 (LPS-induced PGE2 production); assay type: cell-based; parameters: endogenous in cells; host or cells: fresh heparinized human whole blood from volunteers, induced with LPS; conditions: Table IV; human whole blood, LPS, 24 hours; read-out: COX-2(IC50, µM) HWB
T2 sequence (P35354 18-604): T1 sequence (P35354 18-604)
Source text: As well, platelets in whole blood contain a large amount of the COX-1 enzyme. Immediately following blood clotting, platelets are activated through a thrombin-mediated mechanism. […] Therefore, the degree of selectivity by the test compound can be determined by measuring the levels of PGE2 after LPS induction (COX-2) and TxB2 following blood clotting (COX-1) in the same assay.
A. COX-2 (LPS-induced PGE2 production)
Fresh blood is collected in heparinized tubes by venipuncture from both male and female volunteers. The subjects have no apparent inflammatory conditions and have not taken any NSAIDs for at least 7 days prior to blood collection. Plasma is immediately obtained from a 2mL blood aliquot to use as blank (basal levels of PGE2).

[4] = molecular target: T2, COX-2; assay: Assay of the activity of purified human COX-2 (TMPD chromogenic assay); assay type: biochemical; parameters: made in house; host or cells: Sf9 cells
Experimental: Assay of the activity of purified human COX-2
The assay mixture (180 µL) contains 100 mM sodium phosphate, pH 6.5, 2 mM genapol X-100, 1 µM hematin, 1 mg/ml gelatin , 80-100 units of purified enzyme (One unit of enzyme is defined as the amount of enzyme required to produce an O.D. change of 0.001/min at 610 nm) and 4 µL of the test compound in DMSO. The mixture is pre-incubated at room temperature (22°C) for 15 minutes prior to initiation of the enzymatic reaction by the addition of 20 µL of a sonicated solution of I mM arachidonic acid (AA) and 1 mM TMPD in assay buffer (without enzyme or hematin). The enzymatic activity is measured by estimation of the initial velocity of TMPD oxidation over the first 36 sec of the reaction. […] IC50 values are derived from 4-parameter least squares non-linear regression analysis of the log-dose vs % inhibition plot.

[5] = Table IV, CHO[hCOX-2] cells, 10 µM AA
[6] = Table IV, purified enzyme, TMPD oxidation, read-out: COX-2(IC50, µM) TMPD

SMILES	ED50 ([1]; Table IV) [mg/kg]	IC50 [2, 5] [µM]	IC50 [3] [µM]	IC50 [4, 6] [µM]	other results
C[C@]1(CC(F)(F)F)OC(=O)C(Oc2ccc(F)cn2)=C1c1ccc(S(C)(=O)=O)cc1 [Example 164, (5R)-3-(5-Fluoro-2-pyridyloxy)-5-methyl-4-(4-methylsulfonyl) phenyl-5-(2.2.2-trifluoroethyl)-5H-furan-2-one]	2	–	–	–	–
CC1(C)OC(=O)C(Oc2ncccc2F)=C1c1ccc(S(C)(=O)=O)cc1 [Example 167, 3-(3-Fluoro-2-pyridyloxy)-5,5-dimethyl-4-(4-methylsulfonyl) phenyl-5H-furan-2-one]	6.4	0.11	0.21	–	–
CC[C@@]1(C)OC(=O)C(Oc2ccc(Cl)cn2)=C1c1ccc(S(C)(=O)=O)cc1 [Example 169, (5R)-3-(5-chloro-2-pyridyloxy)-5-ethyl-5-methyl-4-(4-methylsulfonyl) phenyl-5H-furan-2-one]	4.6	0.05	< 0.41	4	–
CC[C@@]1(C)OC(=O)C(Oc2ccc(Br)cn2)=C1c1ccc(S(C)(=O)=O)cc1 [Example 202, (5R)-3-(5-bromo-2-pyridyloxy)-4-(4-methylsulfonylphenyl)-5-ethyl-5-methyl-5H-furan-2-one]	5.4	–	–	–	–
CC1(C)OC(=O)C(OC2CCC2)=C1c1ccc(S(C)(=O)=O)cc1 [Example 174]	1.6	–	–	–	–
Cc1cc(OC2=C(c3ccc(S(C)(=O)=O)cc3)C(C)(C)OC2=O)ncc1F [Example 122, 3-(5-Fluoro-4-methyl-2-pyridyloxy)-5,5-dimethyl-4-(4-methylsulfonyl)-phenyl-5H-furan-2-one]	1.2	0.15	0.38	4.6	–
CC[C@@]1(C)OC(=O)C(Oc2ccc(Br)cc2)=C1c1ccc(S(C)(=O)=O)cc1 [Example 128, (5R)-3-(4-Bromophenoxy)-5-ethyl-5-methyl-4-(4-methylsulfonyl)phenyl-5H-furan-2-one]	5	–	< 0.41	1.7	IC50 [2]: 0.01 µM
C[C@]1(CC(F)(F)F)OC(=O)C(Oc2ccc(F)cc2)=C1c1ccc(S(C)(=O)=O)cc1 [Example 166, (5R)-3-(4-fluorophenoxy)-5-methyl-4-(4-methylsulfonyl)phenyl-5-(2,2,2-trifluoroethyl)-5H-furan-2-one]	–	0.05	0.28	6.5	Rat Paw Edema ED50(mg/kg) ([1]; Table IV): 4.9 mg/kg
CC[C@@]1(C)OC(=O)C(Oc2ccc(F)cc2)=C1c1ccc(S(C)(=O)=O)cc1 [Example 163, (5R)-3-(4-Fluorophenoxy)-5-ethyl-5-methyl-4-(4-methylsulfonyl) phenyl-5H-furan-2-one]	0.64	–	–	–	–
CC[C@@]1(C)OC(=O)C(OC(C)C)=C1c1ccc(S(C)(=O)=O)cc1 [Example 140, 5(R)-5-ethyl-5-methyl-4-(4-(methylsulfonyl)phenyl)-3-(2-propoxy)-5H-furan-2-one]	4.6	0.12	0.54	–	–
CC1(C)OC(=O)C(OCC2CC2)=C1c1ccc(S(C)(=O)=O)cc1 [Example 148]	1.2	0.01	–	–	–
CC(OC1=C(c2ccc(S(C)(=O)=O)cc2)C(C)(C)OC1=O)C1CC1 (stereo not shown) [Example 134]	0.9	–	–	–	–
C[C@]1(CC(F)(F)F)OC(=O)C(Oc2ccc(Br)cn2)=C1c1ccc(S(C)(=O)=O)cc1 [Example 201, (5R)-3-(5-bromo-2-pyridyloxy)-4-(4-methylsulfonylphenyl)-5-methyl-5-(2,2,2-trifluoroethyl)-5H-furan-2-one]	2.7	0.07	0.18	14	–
CCC(C)OC1=C(c2ccc(S(C)(=O)=O)cc2)C(C)(C)OC1=O (stereo not shown) [Example 112, 5,5-Dimethyl-3-(2-butoxy)-4-(4-methylsulfonylphenyl)-5H-furan-2-one]	8	–	–	–	–
CC[C@@]1(C)OC(=O)C(Oc2ccc(Cl)cc2)=C1c1ccc(S(C)(=O)=O)cc1 [Example 118, (5R)-3-(4-Chlorophenoxy)-5-ethyl-5-methyl-4-(4-methylsulfonyl)phenyl-5H-furan-2-one]	1.4	0.008	0.05	2.2	–
Cc1cc(OC2=C(c3ccc(S(C)(=O)=O)cc3)C(C)(C)OC2=O)ncc1Cl [Example 121, 3-(5-Chloro-4-methyl-2-pyridyloxy)-5,5-dimethyl-4-(4-methylsulfonyl)-phenyl-5H-furan-2-one]	10	–	–	–	–
CC(C)COC1=C(c2ccc(S(C)(=O)=O)cc2)C(C)(C)OC1=O [Example 149, 5,5-dimethyl-3-(isobutoxy)-4-(4-(methylsulfonyl)phenyl)-5H-furan-2-one]	0.9	–	–	–	–
CC1(C)OC(=O)C(Oc2ccc(Cl)cc2)=C1c1ccc(S(C)(=O)=O)cc1 [Example 6, 3-(4-Chlorophenoxy)-5,5-dimethyl-4-(4-(methylsulfonyl)phenyl)-5H-furan-2-one]	–	–	–	–	ED50 ([1]; Table II): 7.65 mg/kg; IC50 [4]: 2 µM
CC[C@@]1(C)OC(=O)C(Oc2ccc(F)c(F)c2)=C1c1ccc(S(C)(=O)=O)cc1 [Example 117, (5R)-3-(3,4-Difluorophenoxy)-5-ethyl-5-methyl-4-(4-methylsulfonyl)phenyl-5H-furan-2-one]	1	–	–	–	–
